Source: patent publication US10800752B2, “Substituted naphtho[2,3-b]furans as water-soluble prodrugs for preventing and/or treating cancer” (BOSTON BIOMEDICAL, INC., priority 2015, dated 2020)
Where a name gives a salt, the structure may show the parent alone.

How the values were obtained:
[1] = Evaluation of a conversion rate to 2-acetylnaphtho[2,3-b]furan-4,9-dione in human plasma; format: in vitro ADME; settings: 1 umol/L
Protocol: (§1) For test compounds, the decrease rate of the test compounds and the conversion rate thereof to 2-acetylnaphtho[2,3-b]furan-4,9-dione in human plasma, CD1 mouse plasma, and pH 7.4 phosphate buffer solution were measured.
(§2) Test compounds were incubated at the concentration of 1 umol/L in human plasma (cat. no. 12250210, COSMO BIO), CD1 mouse plasma (cat. no. AP3054, KAC), and phosphate buffer solution at 37° C., and removed at predetermined times (0, 5, 10, 30, 60, and 120 minutes). After protein-removing treatment was performed, they are analyzed with LC-MS. It should be noted that the protein-removing treatment used acetonitrile containing: 10% volume of 1 mol/L hydrochloric acid; 1% volume of 46% citric acid; and phenytoin as an internal standard.
(§3) The measurement condition of LC-MS is as described below. LC-MS condition column: Kinetex 2.6 u PFP 100 A 50×2.1 mm Column temperature: 40° C.
(§4) Mobile phase: A: 0.1% formic acid-containing water
(§5) • B: 0.1% formic acid-containing acetonitrile A/B(min): 95/5(0)→5/95(3)→5/95(4)→95/5(4.1)→95/5(6) Flow rate: 0.4 mL/min Detection: ESI (positive mode) Injection volume: 10 uL
In the same way as Example 6, the incubation time was set as 120 minutes later, and the conversion rate of each of various test compounds to 2-acetylnaphtho[2,3-b]furan-4,9-dione in human plasma, CD1 mouse plasma, and pH 7.4 phosphate buffer solution was measured.

[2] = Evaluation of a conversion rate to 2-acetylnaphtho[2,3-b]furan-4,9-dione in CD1 mouse plasma; format: in vitro ADME; settings: 1 umol/L
Protocol: as §1, §2, §3, §4, §5
(§6) Measurement values are calculated from the peak area ratio in LC-MS between an internal standard material, phenytoin and an active form, 2-acetylnaphtho[2,3-b]furan-4,9-dione, and are expressed in %.
(§7) In the same way as Example 6, the incubation time was set as 120 minutes later, and the conversion rate of each of various test compounds to 2-acetylnaphtho[2,3-b]furan-4,9-dione in human plasma, CD1 mouse plasma, and pH 7.4 phosphate buffer solution was measured. A series of the present compounds were confirmed to be converted to 2-acetylnaphtho[2,3-b]furan-4,9-dione in pH 7.4 phosphate buffer solution in addition to human plasma and CD1 mouse plasma. Therefore, a series of the test compounds of the present invention were confirmed to be converted to the activated form via a route other than an enzymatic conversion.

[3] = Evaluation of a conversion rate to 2-acetylnaphtho[2,3-b]furan-4,9-dione in pH 7.4 phosphate buffer solution; format: physicochemical; settings: 1 umol/L, 37° C.; for % Measurement value of Activated form (conversion rate to 2-acetylnaphtho[2,3-b]furan-4,9-dione): formed from Example 6, phosphate buffer solution (pH 7.4); for % Measurement value (conversion rate to 2-acetylnaphtho[2,3-b]furan-4,9-dione): Phosphate buffer solution (pH 7.4)
Protocol: as §1, §2, §3, §4, §5, §6, §7

Solubility test = settings: 50 mmol/L glycine buffer solution (pH 2.0), room temperature, 24 hours shaking
Protocol: A water-soluble prodrug was added into 50 mmol/L glycine buffer solution (pH 2.0). After shaking at room temperature for 24 hours, the mixture was filtered through a membrane filter, and then the filtrate was measured with HPLC.
The measurement condition of HPLC is as described below. HPLC condition column: Acquity UPLC BEH C18, 1.7 um, 50×2.1 mm
Mobile phase: A: 0.1% trifluoroacetic acid-containing water

[4] = Human plasma, 37° C., incubation time 120 min
[5] = CD1 mouse plasma, 37° C., incubation time 120 min

Compound | % Measurement value (conversion rate to 2-acetylnaphtho[2,3-b]furan-4,9-dione) [1, 4] | % Measurement value (conversion rate to 2-acetylnaphtho[2,3-b]furan-4,9-dione) [2, 5] | % Measurement value (conversion rate to 2-acetylnaphtho[2,3-b]furan-4,9-dione) ([3]; incubation time 120 min) | Solubility in pH 2.0 buffer solution (Solubility test) | also measured
CC(=O)c1cc2c(o1)C(=O)c1ccccc1C2=O [Activated form, 2-acetylnaphtho[2,3-b]furan-4,9-dione, reference compound] | – | – | – | – | % Measurement value of Activated form (conversion rate to 2-acetylnaphtho[2,3-b]furan-4,9-dione) ([1]; human, 0 min): 0%; % Measurement value of Activated form (conversion rate to 2-acetylnaphtho[2,3-b]furan-4,9-dione) ([1]; human, 5 min): 24%; % Measurement value of Activated form (conversion rate to 2-acetylnaphtho[2,3-b]furan-4,9-dione) ([1]; human, 10 min): 31%; % Measurement value of Activated form (conversion rate to 2-acetylnaphtho[2,3-b]furan-4,9-dione) ([1]; human, 30 min): 48%; % Measurement value of Activated form (conversion rate to 2-acetylnaphtho[2,3-b]furan-4,9-dione) ([1]; human, 60 min): 64%; % Measurement value of Activated form (conversion rate to 2-acetylnaphtho[2,3-b]furan-4,9-dione) ([1]; human, 120 min): 71%; % Measurement value of Activated form (conversion rate to 2-acetylnaphtho[2,3-b]furan-4,9-dione) ([2]; CD1, mouse, 0 min): 0%; % Measurement value of Activated form (conversion rate to 2-acetylnaphtho[2,3-b]furan-4,9-dione) ([2]; CD1, mouse, 5 min): 23%; % Measurement value of Activated form (conversion rate to 2-acetylnaphtho[2,3-b]furan-4,9-dione) ([2]; CD1, mouse, 10 min): 31%; % Measurement value of Activated form (conversion rate to 2-acetylnaphtho[2,3-b]furan-4,9-dione) ([2]; CD1, mouse, 30 min): 63%; % Measurement value of Activated form (conversion rate to 2-acetylnaphtho[2,3-b]furan-4,9-dione) ([2]; CD1, mouse, 60 min): 67%; % Measurement value of Activated form (conversion rate to 2-acetylnaphtho[2,3-b]furan-4,9-dione) ([2]; CD1, mouse, 120 min): 76%; % Measurement value of Activated form (conversion rate to 2-acetylnaphtho[2,3-b]furan-4,9-dione) ([3]; incubation time 0 min): 0%; % Measurement value of Activated form (conversion rate to 2-acetylnaphtho[2,3-b]furan-4,9-dione) ([3]; incubation time 5 min): 20%; % Measurement value of Activated form (conversion rate to 2-acetylnaphtho[2,3-b]furan-4,9-dione) ([3]; incubation time 10 min): 29%; % Measurement value of Activated form (conversion rate to 2-acetylnaphtho[2,3-b]furan-4,9-dione) ([3]; incubation time 30 min): 55%; % Measurement value of Activated form (conversion rate to 2-acetylnaphtho[2,3-b]furan-4,9-dione) ([3]; incubation time 60 min): 61%; % Measurement value of Activated form (conversion rate to 2-acetylnaphtho[2,3-b]furan-4,9-dione) ([3]; incubation time 120 min): 78%
CC(=O)c1cc2c(OC(=O)NC3CCC(N)CC3)c3ccccc3c(OC(=O)NC3CCC(N)CC3)c2o1.Cl.Cl (stereo not shown) [Example 7] | 69% | 51% | 41% | – | –
CC(=O)c1cc2c(OC(=O)NC3CCNCC3)c3ccccc3c(OC(=O)NC3CCNCC3)c2o1.Cl.Cl [Example 8] | 79% | 79% | 49% | – | –
CC(=O)c1cc2c(OC(=O)NCCOCCN)c3ccccc3c(OC(=O)NCCOCCN)c2o1.Cl.Cl [Example 9] | 65% | 81% | 50% | – | –
CC(=O)c1cc2c(OC(=O)NC3CNC3)c3ccccc3c(OC(=O)NC3CNC3)c2o1.Cl.Cl [Example 10] | 89% | 59% | 58% | >5.0 mg/mL | –
CC(=O)c1cc2c(OC(=O)NCC[C@H](N)C(=O)O)c3ccccc3c(OC(=O)NCC[C@H](N)C(=O)O)c2o1.Cl.Cl [Example 12] | 63% | 78% | 63% | – | –
CC(=O)c1cc2c(OC(=O)NCCCCN)c3ccccc3c(OC(=O)NCCCCN)c2o1.Cl.Cl [Example 13] | 95% | 50% | 13% | – | –
CC(=O)c1cc2c(OC(=O)NCCN)c3ccccc3c(O)c2o1.Cl [Example 18] | 81% | 73% | 80% | – | –
CC(=O)c1cc2c(OC(=O)OCCCCN)c3ccccc3c(OC(=O)OCCCCN)c2o1 [Example 21, 2-Acetylnaphtho[2,3-b]furan-4,9-diyl bis(4-aminobutyl)bis(carbonate)dihydrochloride] | – | – | 24% | – | % Measurement value (conversion rate to 2-acetylnaphtho[2,3-b]furan-4,9-dione) ([1]; human, 120 min): 40%; % Measurement value (conversion rate to 2-acetylnaphtho[2,3-b]furan-4,9-dione) ([2]; CD1, mouse, 120 min): 44%
CCNCCCCOC(=O)Oc1c2ccccc2c(OC(=O)OCCCCNCC)c2oc(C(C)=O)cc12.Cl.Cl [Example 28] | 73% | 85% | 34% | – | –
CC(=O)c1cc2c(O)c3ccccc3c(OC(=O)NCCNCCS(=O)(=O)N(C)C)c2o1.Cl [Example 79] | 71% | – | 39% | 0.3 mg/mL | –
CC(=O)c1cc2c(O)c3ccccc3c(OC(=O)NCCCNCCS(=O)(=O)N(C)C)c2o1.Cl [Example 80] | 54% | – | 32% | 1.0 mg/mL | –
CC(=O)c1cc2c(O)c3ccccc3c(OC(=O)NCCNCCS(C)(=O)=O)c2o1.Cl [Example 81] | 74% | – | 27% | 0.9 mg/mL | –
CC(=O)c1cc2c(O)c3ccccc3c(OC(=O)NCCCNCCS(C)(=O)=O)c2o1.Cl [Example 82] | 74% | – | 25% | 0.1 mg/mL | –
CC(=O)c1cc2c(O)c3ccccc3c(OC(=O)NCCCNCC(=O)NCC(=O)O)c2o1.Cl [Example 84] | 42% | – | 31% | >5.0 mg/mL | –
CC(=O)c1cc2c(O)c3ccccc3c(OC(=O)NCCNCC(=O)N3CCC3)c2o1.Cl [Example 85] | 38% | – | 37% | 4.1 mg/mL | –
CC(=O)c1cc2c(O)c3ccccc3c(OC(=O)NCCCNCC(=O)N3CCC3)c2o1.Cl [Example 86] | 55% | – | 38% | >5.0 mg/mL | –
CC(=O)c1cc2c(O)c3ccccc3c(OC(=O)NCCNCCOC(N)=O)c2o1.Cl [Example 87] | 38% | – | 36% | 4.0 mg/mL | –
CC(=O)c1cc2c(O)c3ccccc3c(OC(=O)NCCCNCCOC(N)=O)c2o1.Cl [Example 88] | 27% | – | 26% | 3.2 mg/mL | –
COC(=O)NCCNCCNC(=O)Oc1c2ccccc2c(O)c2cc(C(C)=O)oc12.Cl [Example 89] | 63% | – | 58% | >5.0 mg/mL | –
COC(=O)OCCNCCNC(=O)Oc1c2ccccc2c(O)c2cc(C(C)=O)oc12.Cl [Example 91] | 61% | – | 45% | 3.6 mg/mL | –
COC(=O)OCCNCCCNC(=O)Oc1c2ccccc2c(O)c2cc(C(C)=O)oc12.Cl [Example 92] | 34% | – | 26% | >5.0 mg/mL | –
Dimethyl 4,4′-((((2-acetylnaphtho[2,3-b]furan-4,9-diyl)bis(oxy))bis(carbonyl))bis-(azanediyl))(2S,2′S)-bis(2-aminobutanoate)dimethanesulfonate salt [Example 104] | 82% | – | 57% | >5.0 mg/mL | –
